This note sets out measurements from patent US12552785B2, “Pyrazolo[1,5-α]pyridine derivative, preparation method therefor, and composition and use thereof” (SHENZHEN ZHONGGE BIOLOGICAL TECHNOLOGY CO., LTD., priority 2020, dated 2026).

The target of one test is RET (Homo sapiens, UniProt P07949). The test is described as follows: HTRF method for testing the inhibitory activity of compounds against RET. The settings on record: IC50 by nonlinear regression, read-out: RET kinase activity. Type of test: biochemical. The protocol: (a) In Vitro Screening Experiment-HTRF Method for Testing the Inhibitory Activity of Compounds Against RET Experimental Procedure: 1. […] 2. The test compound (5 mM stock solution) was diluted 5 folds to 1 mM with 100% dimethyl sulfoxide; the compound was diluted into 10 concentrations at an equal ratio of 1:3 in a 384-well dilution plate. 3. 0.2 μL of the serially diluted compound was added to a 384-well plate using an Echo 550 pipetting system, 2 replicate wells for each concentration, and the final concentration of dimethyl sulfoxide was 0.5% (v/v). […] 6. […] The reaction solution was centrifuged at 1000 g for 30 s, and then sealed, and incubated at room temperature for 30 min. 8. […] 10. […] 11. […] IC50 was calculated with software GraphPad 6.0 by fitting inhibition values and logarithms of compound concentrations to a nonlinear regression (dose response−variable slope).

The next test concerns the target VEGFR2 (Homo sapiens, UniProt P35968). The test is described as follows: HTRF method for testing the inhibitory activity of compounds against VEGFR2. To be noted: IC50 by nonlinear regression, read-out: VEGFR2 kinase activity. It counts as biochemical. The protocol:
(b) In Vitro Screening Experiment—HTRF Method for Testing the Inhibitory Activity of Compounds Against VEGFR2 Experimental Procedure: 1. […] The test compound (5 mM stock solution) was diluted 5 folds to 1 mM with 100% dimethyl sulfoxide; the compound was diluted into 10 concentrations at an equal ratio of 1:3 in a 384-well dilution plate. 3. […] 6. […] The reaction solution was centrifuged at 1000 g for 30 s, and then sealed, and incubated at room temperature for 40 min. 8. […] 10. […] 11. […] 12. IC50 was calculated with software GraphPad 6.0 by fitting inhibition values and logarithms of compound concentrations to a nonlinear regression (dose response−variable slope).

The next test concerns the target T1, Ba/F3-KIF5B-RET cell (Homo sapiens, UniProt P07949).
T1 construct: fused on or other part: P33176 (Kinesin-1 heavy chain)
The test is described as follows: CellTiter-Glo luminescence assay for inhibitory activity against Ba/F3-KIF5B-RET cell. It counts as cell-based. The settings on record: Ba/F3-KIF5B-RET cells, 72 h. The text has this: (c) In Vitro Screening Experiment—CellTiter-Glo Luminescence Assay for Testing the Inhibitory Activity of Compounds Against Ba/F3-KIF5B-RET Cell Experimental Procedure: 1. The mammalian cell expression vector containing human KIF5B-RET cDNA was introduced into Ba/F3 cells using the Neon® transfection system method, and the surviving clones screened by puromycin were subjected to cell growth inhibitory function experiments and Western blotting to verify cell lines with stable and high expression of RET. 2. […] 3. The test compound (5 mM stock) was diluted 2.5 folds to 2 mM with 100% dimethyl sulfoxide; and the compound was diluted into 10 concentrations at an equal ratio of 1:3 in a 384-well dilution plate. 4. […] 6. […] 7. By fitting the data with XLFit 5.0 based on the parameters formula, the IC50 value was calculated as: Y=Bottom+(Top−Bottom)/(1+10^((Log IC50−X)*HillSlope)).

A value given as a limit tells only on which side of the number the result lay.

Sequence of RET (P07949 29-1114): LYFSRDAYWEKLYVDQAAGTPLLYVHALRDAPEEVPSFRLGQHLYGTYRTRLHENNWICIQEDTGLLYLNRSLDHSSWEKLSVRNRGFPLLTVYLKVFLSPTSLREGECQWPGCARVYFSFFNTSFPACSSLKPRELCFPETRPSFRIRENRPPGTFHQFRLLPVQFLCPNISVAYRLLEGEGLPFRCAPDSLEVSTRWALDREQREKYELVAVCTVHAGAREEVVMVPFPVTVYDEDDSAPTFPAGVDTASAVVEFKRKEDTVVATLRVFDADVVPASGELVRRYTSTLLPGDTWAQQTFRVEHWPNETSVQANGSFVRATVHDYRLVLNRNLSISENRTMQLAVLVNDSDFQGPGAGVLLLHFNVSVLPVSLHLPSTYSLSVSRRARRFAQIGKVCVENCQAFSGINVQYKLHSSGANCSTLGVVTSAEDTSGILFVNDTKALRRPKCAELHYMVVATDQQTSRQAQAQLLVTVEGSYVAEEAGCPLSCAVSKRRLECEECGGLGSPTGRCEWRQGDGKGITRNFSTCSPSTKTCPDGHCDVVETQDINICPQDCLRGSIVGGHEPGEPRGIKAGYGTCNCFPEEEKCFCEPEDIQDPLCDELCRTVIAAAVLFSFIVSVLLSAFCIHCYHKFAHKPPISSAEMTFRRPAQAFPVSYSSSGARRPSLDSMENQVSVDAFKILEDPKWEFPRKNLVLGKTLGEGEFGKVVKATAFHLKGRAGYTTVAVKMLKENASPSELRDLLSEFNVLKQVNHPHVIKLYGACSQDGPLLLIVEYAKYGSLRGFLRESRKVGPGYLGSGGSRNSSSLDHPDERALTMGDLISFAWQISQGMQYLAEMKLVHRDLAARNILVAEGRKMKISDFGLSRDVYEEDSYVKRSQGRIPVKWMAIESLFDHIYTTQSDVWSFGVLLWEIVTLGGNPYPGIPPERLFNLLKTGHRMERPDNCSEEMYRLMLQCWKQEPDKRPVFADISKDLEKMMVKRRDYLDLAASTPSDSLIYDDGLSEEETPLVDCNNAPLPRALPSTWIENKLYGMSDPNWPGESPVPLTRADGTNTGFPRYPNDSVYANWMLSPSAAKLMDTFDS
T1 sequence (P07949 whole entry, change not shown, the tested form may be a part): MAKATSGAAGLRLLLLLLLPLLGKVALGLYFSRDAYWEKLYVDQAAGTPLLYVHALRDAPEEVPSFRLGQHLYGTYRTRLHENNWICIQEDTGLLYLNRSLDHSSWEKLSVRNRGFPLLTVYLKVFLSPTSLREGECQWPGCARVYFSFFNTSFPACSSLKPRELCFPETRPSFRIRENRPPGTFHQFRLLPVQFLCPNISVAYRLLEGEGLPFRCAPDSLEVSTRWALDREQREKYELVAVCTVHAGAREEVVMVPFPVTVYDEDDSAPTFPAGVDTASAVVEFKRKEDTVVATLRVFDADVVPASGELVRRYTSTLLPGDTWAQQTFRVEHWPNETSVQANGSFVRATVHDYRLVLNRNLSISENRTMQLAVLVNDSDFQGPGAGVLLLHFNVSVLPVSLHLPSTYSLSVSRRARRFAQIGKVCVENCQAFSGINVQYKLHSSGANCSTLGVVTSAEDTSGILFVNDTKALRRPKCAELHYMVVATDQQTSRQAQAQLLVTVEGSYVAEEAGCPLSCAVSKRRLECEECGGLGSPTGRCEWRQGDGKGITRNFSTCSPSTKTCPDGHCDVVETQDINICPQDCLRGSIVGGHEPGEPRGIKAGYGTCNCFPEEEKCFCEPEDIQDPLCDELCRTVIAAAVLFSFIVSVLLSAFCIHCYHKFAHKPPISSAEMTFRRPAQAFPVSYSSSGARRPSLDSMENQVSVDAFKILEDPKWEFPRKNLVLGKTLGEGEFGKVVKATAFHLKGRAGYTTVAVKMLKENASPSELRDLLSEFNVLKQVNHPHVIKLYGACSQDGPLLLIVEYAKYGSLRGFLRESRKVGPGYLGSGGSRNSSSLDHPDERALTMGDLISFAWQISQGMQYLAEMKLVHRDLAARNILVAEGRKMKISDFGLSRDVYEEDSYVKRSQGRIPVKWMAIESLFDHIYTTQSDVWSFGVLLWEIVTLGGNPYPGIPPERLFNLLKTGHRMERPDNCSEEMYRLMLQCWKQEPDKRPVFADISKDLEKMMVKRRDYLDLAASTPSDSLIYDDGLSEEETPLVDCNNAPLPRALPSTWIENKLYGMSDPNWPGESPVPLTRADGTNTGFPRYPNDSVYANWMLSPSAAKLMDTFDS
Sequence of VEGFR2 (P35968 20-1356, species assumed): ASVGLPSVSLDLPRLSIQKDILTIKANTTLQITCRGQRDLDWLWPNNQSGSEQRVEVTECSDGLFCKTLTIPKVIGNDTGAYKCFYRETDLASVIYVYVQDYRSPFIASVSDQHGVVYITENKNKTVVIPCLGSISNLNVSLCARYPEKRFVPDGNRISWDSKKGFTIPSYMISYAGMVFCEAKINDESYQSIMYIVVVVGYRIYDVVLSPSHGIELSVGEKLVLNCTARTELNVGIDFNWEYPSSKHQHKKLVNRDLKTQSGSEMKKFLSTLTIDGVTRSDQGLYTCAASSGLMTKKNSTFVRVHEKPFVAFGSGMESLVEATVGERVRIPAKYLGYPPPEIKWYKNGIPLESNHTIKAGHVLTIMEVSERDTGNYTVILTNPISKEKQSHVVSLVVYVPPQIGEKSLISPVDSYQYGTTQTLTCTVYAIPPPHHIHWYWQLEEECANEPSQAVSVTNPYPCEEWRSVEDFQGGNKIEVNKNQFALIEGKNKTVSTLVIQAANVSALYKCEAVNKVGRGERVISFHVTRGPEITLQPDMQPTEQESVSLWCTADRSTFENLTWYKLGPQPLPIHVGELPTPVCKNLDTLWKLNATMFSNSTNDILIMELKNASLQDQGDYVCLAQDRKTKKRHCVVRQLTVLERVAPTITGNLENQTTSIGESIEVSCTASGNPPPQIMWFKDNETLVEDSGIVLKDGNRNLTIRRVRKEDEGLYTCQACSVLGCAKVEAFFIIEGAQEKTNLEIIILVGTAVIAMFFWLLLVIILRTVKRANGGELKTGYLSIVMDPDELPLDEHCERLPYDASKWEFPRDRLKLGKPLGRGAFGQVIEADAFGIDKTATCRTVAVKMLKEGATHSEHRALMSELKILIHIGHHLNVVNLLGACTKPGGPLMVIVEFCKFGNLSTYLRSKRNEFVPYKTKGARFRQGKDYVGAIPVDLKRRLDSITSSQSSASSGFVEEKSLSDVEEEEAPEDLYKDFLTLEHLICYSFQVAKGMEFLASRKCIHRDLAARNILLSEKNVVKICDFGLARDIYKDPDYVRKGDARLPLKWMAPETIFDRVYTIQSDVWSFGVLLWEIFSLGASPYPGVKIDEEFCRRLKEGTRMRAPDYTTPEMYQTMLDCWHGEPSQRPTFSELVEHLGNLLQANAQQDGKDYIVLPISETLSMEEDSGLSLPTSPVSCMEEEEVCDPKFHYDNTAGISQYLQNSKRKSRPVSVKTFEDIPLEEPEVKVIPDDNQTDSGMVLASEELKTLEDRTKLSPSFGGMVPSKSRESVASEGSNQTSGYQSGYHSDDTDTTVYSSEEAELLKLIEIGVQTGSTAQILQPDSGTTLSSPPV

`COCOc1cc(-c2ccc(N(C)[C@@H](C)c3ccc(-n4cc(F)cn4)nc3)nc2)c2c(C#N)cnn2c1` [Compound 55, (S)-4-(6-((1-(6-(4-fluoro-1H-pyrazol-1-yl)pyridin-3-yl)ethyl)(methyl)amino)pyridine-3-yl)-6-(methoxymethoxy)pyrazolo[1,5-a]pyridine-3-carbonitrile]: the IC50 was 0.00379 µM on RET and above 5 µM at VEGFR2. The compound also gave a GI50 at Ba/F3-KIF5B-RET cell of 0.38 µM.
On to `C[C@@H](c1ccc(-n2cc(F)cn2)nc1)N(C)c1ccc(-c2cc(OCC(F)(F)F)cn3ncc(C#N)c23)cn1` [Compound 35, (S)-4-(6-((1-(6-(4-fluoro-1H-pyrazol-1-yl)pyridin-3-yl)ethyl)(methyl)amino)pyridine-3-yl)-6-(2,2,2-trifluoroethoxy)pyrazolo[1,5-a]pyridine-3-carbonitrile], for which the IC50 was 0.00694 µM on RET and 0.819 µM at VEGFR2. For the same compound, the GI50 at Ba/F3-KIF5B-RET cell was 0.396 µM.
The matching figures for `CC(C)Nc1cc(-c2ccc(N(C)[C@@H](C)c3ccc(-n4cc(F)cn4)nc3)nc2)c2c(C#N)cnn2c1` [Compound 50, (S)-4-(6-((1-(6-(4-fluoro-1H-pyrazol-1-yl)pyridin-3-yl)ethyl)(methyl)amino)pyridine-3-yl)-6-(isopropylamino)pyrazolo[1,5-a]pyridine-3-carbonitrile]: 0.00167 µM, 0.156 µM and 0.104 µM.
As for `C[C@@H](c1ccc(-n2cc(F)cn2)nc1)N(C)c1ccc(-c2cc(N3CCC(F)(F)CC3)cn3ncc(C#N)c23)cn1` [Compound 48], the values for the IC50 at RET and on VEGFR2 were 0.00432 µM and at least 5.44 µM, respectively. On Ba/F3-KIF5B-RET cell, this compound yielded a GI50 of 0.142 µM.
For the compound `CCCOc1cc(-c2ccc(N(C)[C@@H](C)c3ccc(-n4cc(F)cn4)nc3)nc2)c2c(C#N)cnn2c1` [Compound 39, (S)-4-(6-((1-(6-(4-fluoro-1H-pyrazol-1-yl)pyridin-3-yl)ethyl)(methyl)amino)pyridine-3-yl)-6-propoxypyrazolo[1,5-a]pyridine-3-carbonitrile], the results for the IC50 at RET and at VEGFR2 were 0.00193 µM and above 5 µM, respectively. It took 0.182 µM to inhibit growth on Ba/F3-KIF5B-RET cell by half (GI50).
Turning to `C[C@@H](c1ccc(-n2cc(F)cn2)nc1)N(C)c1ccc(-c2cc(N3CC(C)(C#N)C3)cn3ncc(C#N)c23)cn1` [Compound 24], the IC50 was found to be 0.00099 µM on RET and 0.0646 µM at VEGFR2. Also, the GI50 on Ba/F3-KIF5B-RET cell stood at 0.00585 µM.
The matching figures for `C[C@@H](c1ccc(-n2cc(F)cn2)nc1)N(C)c1ccc(-c2cc(N3CCC(C)(O)CC3)cn3ncc(C#N)c23)cn1` [Compound 23, (S)-4-(6-((1-(6-(4-fluoro-1H-pyrazol-1-yl)pyridin-3-yl)ethyl)(methyl)amino)pyridine-3-yl)-6-(4-hydroxy-4-methylpiperidin-1-yl)pyrazolo[1,5-a]pyridine-3-carbonitrile]: 0.00082 µM, 0.0749 µM and 0.0181 µM.
Regarding `CC(C)(O)COc1cc(-c2ccc(NCc3ccc(N4CCCC4=O)nc3)nc2)c2c(C#N)cnn2c1` [Compound 8, 6-(2-hydroxy-2-methylpropoxy)-4-(6-((6-(2-oxopyrrolidin-1-yl)pyridin-3-yl)methylamino)pyridine-3-yl)pyrazolo[1,5-a]pyridine-3-carbonitrile], the IC50 at RET was 0.0094 µM; at VEGFR2, 0.17 µM. This compound came in with a GI50 on Ba/F3-KIF5B-RET cell of 0.0685 µM.
The matching figures for `C[C@@H](c1ccc(-n2cc(F)cn2)nc1)N(C)c1ccc(-c2cc(-c3cnn(C)c3)cn3ncc(C#N)c23)cn1` [Compound 29, (S)-6-(1-methyl-1H-pyrazol-4-yl)-4-(6-((1-(6-(4-fluoro-1H-pyrazol-1-yl)pyridine-3-yl)ethyl)(methyl)amino)pyridin-3-yl)pyrazolo[1,5-a]pyridine-3-carbonitrile]: 0.00036 µM, 0.00329 µM and 0.00075 µM.
The matching figures for `CC(C)(O)COc1cc(-c2ccc(NCc3ccc(-n4ccnc4)nc3)nc2)c2c(C#N)cnn2c1` [Compound 7]: 0.00714 µM, 0.0721 µM and 0.203 µM.
For `CC(C)(O)COc1cc(-c2ccc(NCc3ccc4cccnc4c3)nc2)c2c(C#N)cnn2c1` [Compound 13] the same measures were 0.00517 µM, 0.136 µM and 0.0508 µM.
With `C[C@@H](c1ccc(-n2cccn2)nc1)N(C)c1ccc(-c2cc(OCC(C)(C)O)cn3ncc(C#N)c23)cn1` [Compound 58, (S)-4-(6-((1-(6-(1H-pyrazol-1-yl)pyridin-3-yl)ethyl)(methyl)amino)pyridin-3-yl)-6-(2-hydroxy-2-methylpropoxy)pyrazolo[1,5-a]pyridine-3-carbonitrile], the IC50 on RET came out at 0.0005 µM; on VEGFR2, 0.0265 µM. Besides, the GI50 on Ba/F3-KIF5B-RET cell was determined as 0.0428 µM.
The matching figures for `C[C@H](Nc1ccc(-c2cc(OCC(C)(C)O)cn3ncc(C#N)c23)cn1)c1ccc(-n2cc(F)cn2)nc1` [Compound 2, (S)-4-(6-((1-(6-(4-fluoro-1H-pyrazol-1-yl)pyridin-3-yl)ethyl)amino)pyridin-3-yl)-6-(2-hydroxy-2-methylpropoxy)pyrazolo[1,5-a]pyridine-3-carbonitrile]: 0.00046 µM, 0.00351 µM and 0.0107 µM.
Turning to `Cc1cn(-c2ccc(CNc3ccc(-c4cc(OCC(C)(C)O)cn5ncc(C#N)c45)cn3)cn2)cn1` [Compound 11], the IC50 came to 0.0125 µM at RET and 0.11 µM on VEGFR2. At Ba/F3-KIF5B-RET cell, this compound had a GI50 of 0.613 µM.
For the compound `C[C@@H](c1ccc(-n2cc(F)cn2)nc1)N(C)c1ccc(-c2cc(OCC3CC3)cn3ncc(C#N)c23)cn1` [Compound 28, (S)-6-(cyclopropylmethoxy)-4-(6-((1-(6-(4-fluoro-1H-pyrazol-1-yl)pyridin-3-yl)ethyl)(methyl)amino)pyridin-3-yl)pyrazolo[1,5-a]pyridine-3-carbonitrile], the IC50 at RET came out at 0.00225 µM; on VEGFR2 it was 1.19 µM. On Ba/F3-KIF5B-RET cell, this compound registered a GI50 of 0.177 µM.
The matching figures for `C[C@@H](c1ccc(-n2cc(F)cn2)nc1)N(C)c1ccc(-c2cc(N3CCOCC3)cn3ncc(C#N)c23)cn1` [Compound 26, (S)-4-(6-((1-(6-(4-fluoro-1H-pyrazol-1-yl)pyridin-3-yl)ethyl)(methyl)amino)pyridine-3-yl)-6-morpholinopyrazolo[1,5-a]pyridine-3-carbonitrile]: 0.000245 µM, 0.033 µM and 0.0074 µM.
As for `C[C@@H](c1ccc(-n2cc(F)cn2)nc1)N(C)c1ccc(-c2cc(OCC3(O)CC3)cn3ncc(C#N)c23)cn1` [Compound 46, (S)-4-(6-((1-(6-(4-fluoro-1H-pyrazolyl)pyridin-3-yl)ethyl)(methyl)amino)pyridin-3-yl)-6-((1-hydroxycyclopropyl)methoxy)pyrazolo[1,5-a]pyridine-3-carbonitrile], the IC50 at RET stood at 0.00073 µM; at VEGFR2, 0.0805 µM. At Ba/F3-KIF5B-RET cell, the GI50 was determined as 0.0136 µM.
On to `C[C@H](Nc1ccc(-c2cc(OC[C@H]3CNCCO3)cn3ncc(C#N)c23)cn1)c1ccc(-n2cc(F)cn2)nc1` [Compound 4], for which the IC50 stood at 0.00018 µM at RET and 0.00031 µM on VEGFR2. Besides, on Ba/F3-KIF5B-RET cell, the GI50 amounted to 0.012 µM.
For the compound `CCN(Cc1ccc(-n2cc(F)cn2)nc1)c1ccc(-c2cc(OCC(C)(C)O)cn3ncc(C#N)c23)cn1` [Compound 57], the IC50 on RET was found to be 0.0013 µM; on VEGFR2, 0.0592 µM. On Ba/F3-KIF5B-RET cell, this compound returned a GI50 of 0.0407 µM.
On to `CN(Cc1ccc(-n2cc(F)cn2)nc1)c1ccc(-c2cc(OCC(C)(C)O)cn3ncc(C#N)c23)cn1` [Compound 56, 4-(6-(((6-(4-fluoro-1H-pyrazol-1-yl)pyridin-3-yl)methyl)(methyl)amino)pyridin-3-yl)-6-(2-hydroxy-2-methylpropoxy)pyrazolo[1,5-a]pyridine-3-carbonitrile], for which the IC50 turned out to be 0.00068 µM on RET and 0.0302 µM on VEGFR2. The concentration for 50% growth inhibition (GI50) on Ba/F3-KIF5B-RET cell stood at 0.0139 µM.
For `CC(O)COc1cc(-c2ccc(N(C)[C@@H](C)c3ccc(-n4cc(F)cn4)nc3)nc2)c2c(C#N)cnn2c1` (stereo partly drawn) [Compound 36, (S)-4-(6-((1-(6-(4-fluoro-1H-pyrazol-1-yl)pyridin-3-yl)ethyl)(methyl)amino)pyridine-3-yl)-6-(2-hydroxypropoxy)pyrazolo[1,5-a]pyridine-3-carbonitrile], the IC50 on RET came to 0.00276 µM; on VEGFR2, 0.047 µM. Also, the GI50 on Ba/F3-KIF5B-RET cell turned out to be 0.0199 µM.
